Assay results published in publication PMC6385242, “Identification and characterization of a factor Va-binding site on human prothrombin fragment 2” (Scientific Reports, 2019).

Key:
[1] = tested on: F2 (prothrombin fragment 2); experiment: HSQC NMR of 15N-labeled F2 with thrombin or thrombin-derived peptide; assay type: binding, human; conditions: F2:peptide ratio as printed
Method: Uniform ^15N and ^13C/^15N isotopic labeling of F2 was achieved as described previously. Once labeled, F2 preparations prepared and pH adjusted, 25 μL of D2O was added to the protein solution to provide the NMR deuterium lock signal. For the titration experiments, small aliquots of the FVa-HC or FPRck-thrombin, both in 2 mM HEPES, 50 mM sodium phosphate buffer, pH 7, were added to samples of ^15N-labeled F2 up to a molar ratio of ~10:1. […]
All NMR experiments were carried out at 35° C on a Bruker Avance500 or an Avance800 spectrometer equipped with triple-resonance (^1H, ^13C, and ^15N) and three-axis gradient probes. Two-dimensional and three-dimensional NMR data collected for ^15N- and ^13C/^15N-labeled F2 included ^1H-^15N HSQC, HNCO, HN(CA)CO, HNCA, HN(CO)CA, CBCA(CO)NH and HNCACB[57]–[59]. Water suppression was achieved using the WATERGATE method with a 3:9:19 selective pulse incorporated in all the three-dimensional pulse sequences. […]
synthesized a peptide corresponding to residues 91- 101 of human thrombin with two cysteine residues added to form a disulfide bond between the N- and C-terminal en ds of the p eptide (s ee Experimental Procedures). […] Potential binding of the thrombin- derived peptide with F2 was monitored by the 1H-15N HSQC spectra of 15N-labeled F2 with a F2:peptide ratio of 3:1. […]

[2] = biological target: T1, prothrombinase (FXa/FVa/PCPS), prothrombin activation (Homo sapiens, UniProt P00742+P12259); experiment: Relative rate of prothrombin activation with F2-derived peptides (screen, Fig. S1); assay type: biochemical; conditions: peptide 0, 50, 200, 500 μM; 300 nM prothrombin, 5 mM CaCl2, 3 μM DAPA, 50 μM PCPS, 5 nM FVa, 0.05 nM FXa
T1 construct: purchased Haematologic Technologies, Inc (FXa, FVa); Enzyme Research Laboratories (prothrombin)
T1 sequence (P12259 29-737 limits assumed): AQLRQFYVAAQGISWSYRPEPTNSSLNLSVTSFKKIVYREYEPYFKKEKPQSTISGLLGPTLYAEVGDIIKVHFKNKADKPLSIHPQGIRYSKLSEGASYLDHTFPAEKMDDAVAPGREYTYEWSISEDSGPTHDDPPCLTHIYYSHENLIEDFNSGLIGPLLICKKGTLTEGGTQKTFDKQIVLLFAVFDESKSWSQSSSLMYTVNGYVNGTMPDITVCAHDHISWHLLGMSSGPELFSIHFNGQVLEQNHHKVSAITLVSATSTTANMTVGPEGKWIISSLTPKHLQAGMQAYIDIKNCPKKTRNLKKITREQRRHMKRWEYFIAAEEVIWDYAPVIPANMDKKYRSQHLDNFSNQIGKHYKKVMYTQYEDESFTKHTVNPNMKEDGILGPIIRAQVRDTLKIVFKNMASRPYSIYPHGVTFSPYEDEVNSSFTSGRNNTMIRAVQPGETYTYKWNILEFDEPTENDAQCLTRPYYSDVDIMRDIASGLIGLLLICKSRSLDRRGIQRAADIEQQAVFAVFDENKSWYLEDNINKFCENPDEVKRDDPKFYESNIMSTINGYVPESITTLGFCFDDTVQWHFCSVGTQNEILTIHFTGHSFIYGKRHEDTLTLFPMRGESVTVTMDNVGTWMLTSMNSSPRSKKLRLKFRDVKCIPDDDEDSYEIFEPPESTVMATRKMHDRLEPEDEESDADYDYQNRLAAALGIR
T1 sequence (P12259 1574-2224 limits assumed): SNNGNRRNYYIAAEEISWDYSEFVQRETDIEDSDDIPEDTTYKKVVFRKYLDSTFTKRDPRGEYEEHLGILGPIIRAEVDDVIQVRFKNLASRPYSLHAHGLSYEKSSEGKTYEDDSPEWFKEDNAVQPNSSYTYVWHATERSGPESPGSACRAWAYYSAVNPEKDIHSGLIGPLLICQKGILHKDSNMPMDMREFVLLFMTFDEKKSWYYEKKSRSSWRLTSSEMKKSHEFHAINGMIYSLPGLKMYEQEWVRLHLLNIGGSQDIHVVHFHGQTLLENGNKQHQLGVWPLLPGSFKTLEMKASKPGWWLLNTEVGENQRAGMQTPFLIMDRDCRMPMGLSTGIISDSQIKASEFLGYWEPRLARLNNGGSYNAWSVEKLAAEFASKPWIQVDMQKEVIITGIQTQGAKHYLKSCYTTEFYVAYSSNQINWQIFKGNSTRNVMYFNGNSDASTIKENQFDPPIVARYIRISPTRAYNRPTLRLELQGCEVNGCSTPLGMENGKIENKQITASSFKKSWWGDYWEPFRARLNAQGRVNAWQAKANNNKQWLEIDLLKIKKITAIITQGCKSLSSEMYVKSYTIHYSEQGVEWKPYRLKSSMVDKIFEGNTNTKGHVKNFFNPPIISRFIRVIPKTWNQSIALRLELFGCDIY
T1 sequence (P00742 41-179 partner limits assumed): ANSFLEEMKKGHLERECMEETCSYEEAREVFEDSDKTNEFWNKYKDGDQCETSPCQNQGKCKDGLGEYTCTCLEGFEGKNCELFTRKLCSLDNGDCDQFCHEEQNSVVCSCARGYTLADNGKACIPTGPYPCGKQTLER
T1 sequence (P00742 235-488 partner limits assumed): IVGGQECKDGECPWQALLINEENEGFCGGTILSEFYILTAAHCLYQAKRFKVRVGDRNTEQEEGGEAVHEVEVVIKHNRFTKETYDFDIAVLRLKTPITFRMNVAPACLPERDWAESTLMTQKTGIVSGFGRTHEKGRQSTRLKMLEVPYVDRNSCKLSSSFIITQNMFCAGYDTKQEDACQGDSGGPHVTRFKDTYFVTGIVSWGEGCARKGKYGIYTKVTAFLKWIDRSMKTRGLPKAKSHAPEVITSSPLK
Method: (§1) Reactions were started with addition of FXa (0.1 nM), and monitored in SpectraMax Gemini fluorescence plate reader (Molecular Devices, Sunnyvale, California) at excitation and emission wavelengths of 280 nm and 545 nm, respectively, with a 530 nm emission cut off filter in the emission beam at 25 °C. In the absence of FVa, reactions were carried out as described above; however, the reactions were started with the addition of 20 nM FXa. The Ki values were estimated using the Cheng-Prusoff equation (IC50 = [1 + ([S]/KM)] Ki) based on the IC50 values obtained by nonlinear regression of a rectangular hyperbola, whereby [S] is the prothrombin concentration and KM is the Michaelis constant of prothrombinase for prothrombin determined in a separate experiment as described previously.
Figure S1. Relative rate of prothrombin activation in the presence of each of the peptides at various concentrations. Initial rates of prothrombin activation were determined from reactions containing 300 nM prothrombin. 5 mM CaCl2, 3 μM DAPA, 50 μM PCPS, 5 nM FVa and 0.05 nM FXa. Relative rates of prothrombin activation are shown for each concentration of peptide at […]
(1 picture or pasted object on this page, not shown here)

[3] = tested on: FXa/PCPS, prothrombin activation; experiment: Inhibition of FXa-mediated prothrombin activation by F2-derived peptides in the absence of FVa; assay type: biochemical, human; conditions: 300 nM prothrombin, 5 mM CaCl2, 5 μM DAPA, 50 μM PCPS, 20 nM FXa
Method: Figure 3 Inhibition of FXa-mediated prothrombin activation by synthetic peptides derived from F2. […] Reactions were started by addition of 20 nM FXa. […] Reactions were initiated by addition of 0.1 nM FXa. Non-linear regression analysis was carried out to determine the IC50 and the apparent Ki was calculated using the Cheng-Prusoff equation.
as §1

prothrombinase = conditions: cited from earlier work
Excerpt: It has been widely accepted that FVa alone increases the rate of thrombin generation by 3 orders of magnitude while the membrane surface alone increases the catalytic efficiency of thrombin generation by 2 orders of magnitude, which together increases its catalytic efficiency by 5 orders of magnitude. These individual contributions of the prothrombinase components toward overall thrombin generation, however, were not observed in our experiments (Table 1). […] The 5-orders of magnitude ...

[4] = pH 7.4
[5] = tested on: F2 (prothrombin fragment 2); conditions: thrombin/F2 molar ratios 1:30 to 1:10; clusters Asp68–Lys81 and Ala96–Asp108; ref (9) Koutychenko, A. (2002); cited from earlier work
Excerpt: page 3: plasma-derived material, indicating purity and functional integrity of the recombinant F2 protein (9). […] Not abl y, there were two upfield -shifted meth yl proton resonances, which are common for a conserved Leu residue in all kringle domains (10 –12) .

CH91PRYNWRENLDR101C (disulfide) [thrombin-derived peptide, residues 91-101 in the B-chain of human thrombin with two Cys residues added, cyclic]
chemical shift changes in 15N-F2 versus intact thrombin [1]: smaller chemical shift changes

DGLDEDSDRAIEGR [F2P8, F2-derived peptide, prothrombin residues 258-271]
dose-dependent inhibition of prothrombin activation [2]: inhibited prothrombin activation in a dose-dependent manner
inhibition of prothrombin activation in the absence of FVa [3]: inhibited prothrombin activation

DLNYS*EEAVEEETG [F2P7, F2-derived peptide, prothrombin residues 244-257, cysteine changed to serine]
dose-dependent inhibition of prothrombin activation [2]: did not

EGSSVNLSPPLE [F2P1, F2-derived peptide, prothrombin residues 157-168]
dose-dependent inhibition of prothrombin activation [2]: inhibited prothrombin activation in a dose-dependent manner
inhibition of prothrombin activation in the absence of FVa [3]: inhibited prothrombin activation

FVa: factor Va, protein cofactor of prothrombinase
increase in rate of thrombin generation by FVa alone (prothrombinase): 3 orders of magnitude

LAWASAQAKALSKH [F2P4]
solubility [4]: not soluble

QDFNSAVQLVEN [F2P5]
solubility [4]: not soluble

YVAGKPGDFGY [F2P6, F2-derived peptide, prothrombin residues 232-242]
dose-dependent inhibition of prothrombin activation [2]: did not

thrombin
perturbed HSQC peaks of 15N-F2 [5]: two major clusters
